Measured values reported in patent US9938262B2, “Benzamides” (Merck Patent GmbH, priority 2011, dated 2018).
Where two headings read alike, the source gives them in different places.

Target: T1, FSHR (Homo sapiens, UniProt P23945)
T1 construct: expressed in transfected cells; host or cells: CHO (Cho-FSHR-LUC-1-1-43)
Assay: EC50 of cyclic AMP production in CHO FSHR cells + EC20 FSH (Assay A)
Type: cell-based
Details: for EC50: CHO FSHR cells + EC20 FSH, read-out: Assay A EC50 of cyclic AMP production; for activation at 5 µM: 1 h, effect relative to maximum response of the FSH standard
Summary of the method: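 cAMP HTRF ratio (665/620 nm) read after 1 h, 37 °C exposure of CHO-FSHR cells to compound in presence of EC20 FSH ([…]) and IBMX 200 μM. Responses given relative to FSH standard maximum; EC50 derived.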

T1 sequence (P23945 18-695): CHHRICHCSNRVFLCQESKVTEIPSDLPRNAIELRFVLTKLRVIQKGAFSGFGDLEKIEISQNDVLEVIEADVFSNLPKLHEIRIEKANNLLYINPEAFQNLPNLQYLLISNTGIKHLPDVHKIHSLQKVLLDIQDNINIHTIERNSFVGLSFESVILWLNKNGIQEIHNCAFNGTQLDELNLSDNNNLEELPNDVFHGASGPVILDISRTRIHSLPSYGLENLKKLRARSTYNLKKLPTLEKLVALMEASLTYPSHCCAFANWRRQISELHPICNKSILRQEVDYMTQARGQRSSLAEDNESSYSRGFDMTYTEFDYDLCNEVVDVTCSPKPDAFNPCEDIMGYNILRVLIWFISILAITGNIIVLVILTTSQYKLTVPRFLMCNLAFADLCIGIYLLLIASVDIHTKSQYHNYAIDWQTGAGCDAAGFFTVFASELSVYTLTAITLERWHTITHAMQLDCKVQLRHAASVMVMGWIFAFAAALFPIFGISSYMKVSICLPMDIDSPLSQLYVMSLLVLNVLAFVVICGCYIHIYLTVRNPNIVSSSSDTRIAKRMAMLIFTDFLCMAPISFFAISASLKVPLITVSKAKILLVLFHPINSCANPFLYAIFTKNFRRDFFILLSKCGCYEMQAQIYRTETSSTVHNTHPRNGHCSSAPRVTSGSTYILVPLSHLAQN
T1 sequence (P01215 25-116 partner): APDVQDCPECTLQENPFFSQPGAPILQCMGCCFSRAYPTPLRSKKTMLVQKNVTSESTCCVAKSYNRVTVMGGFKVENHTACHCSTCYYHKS
T1 sequence (P01225 19-129 partner): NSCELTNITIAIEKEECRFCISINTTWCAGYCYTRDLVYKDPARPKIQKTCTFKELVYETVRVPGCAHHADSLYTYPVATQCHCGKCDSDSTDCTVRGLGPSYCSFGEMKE

SMILES | EC50 (Table 1) | other results
Cc1ncc(C(=O)Nc2cc(C(=O)NCCCN3CCCC3=O)ccc2N2CCN(c3ccccc3C)CC2)s1 [Compound 198] | 0.1 to 1 µM | –
CCc1ncc(C(=O)Nc2cc(C(=O)NCCCN3CCCC3=O)ccc2N2CCN(c3ccccc3C)CC2)s1 [Compound 200] | 1 to 10 µM | –
Cc1ccccc1N1CCN(c2ccc(C(=O)NCCCN3CCCC3=O)cc2NC(=O)c2sc(Cl)nc2C)CC1 [Compound 201] | > 10 µM | –
Cc1ccccc1N1CCN(c2ccc(C(=O)NCCCN3CCCC3=O)cc2NC(=O)c2nc3ccccc3s2)CC1 [Compound 202] | 1 to 10 µM | –
Cc1cnc(C(=O)Nc2cc(C(=O)NCCCN3CCCC3=O)ccc2N2CCN(c3ccccc3C)CC2)s1 [Compound 205] | 0.1 to 1 µM | –
Cc1ccccc1N1CCN(c2ccc(C(=O)NCCCN3CCCC3=O)cc2NC(=O)c2coc(C(C)C)n2)CC1 [Compound 208] | 1 to 10 µM | –
Cc1ccc(C(=O)Nc2cc(C(=O)NCCCn3ccnc3)ccc2N2CCN(c3ccccc3C)CC2)o1 [Compound 210, 5-Methyl-furan-2-carboxylic acid [5-(3-imidazol-1-yl-propylcarbamoyl)-2-(4-o-tolyl-piperazin-1-yl)-phenyl]-amide] | 1 to 10 µM | –
C=CC(=O)NCCCNC(=O)c1ccc(N2CCN(c3ccccc3C)CC2)c(NC(=O)c2ccco2)c1 [Compound 212] | 0.1 to 1 µM | –
Cc1ccccc1N1CCN(c2ccc(C(=O)NCCCN3CCCC3=O)cc2NC(=O)c2csc(C(C)C)c2)CC1 [Compound 213] | > 10 µM | –
Cc1ccc(C(=O)Nc2cc(C(=O)NCCN3CCN(C(=O)OC(C)(C)C)CC3)ccc2N2CCN(c3ccccc3C)CC2)o1 [Compound 214] | 1 to 10 µM | –
Cc1ccccc1N1CCN(c2ccc(C(=O)NCCCN3CCCC3=O)cc2NC(=O)c2ccc(C(N)=O)o2)CC1 [Compound 216, Furan-2,5-dicarboxylic acid 2-amide 5-{[5-[3-(2-oxo-pyrrolidin-1-yl)-propylcarbamoyl]-2-(4-o-tolyl-piperazin-1-yl)-phenyl]-amide}] | > 10 µM | –
Cc1ccc(C(=O)Nc2cc(C(=O)NCc3cccnc3)ccc2N2CCN(c3ccccc3C)CC2)o1 [Compound 218, 5-Methyl-furan-2-carboxylic acid [5-[(pyridin-3-ylmethyl)-carbamoyl]-2-(4-o-tolyl-piperazin-1-yl)-phenyl]-amide] | 0.1 to 1 µM | –
Cc1ccccc1N1CCN(c2ccc(C(=O)NCCCN3CCCC3=O)cc2NC(=O)CC2CC2)CC1 [Compound 219, 3-(2-Cyclopropyl-acetylamino)-N-[3-(2-oxo-pyrrolidin-1-yl)-propyl]-4-(4-o-tolyl-piperazin-1-yl)-benzamide] | 1 to 10 µM | –
CCCc1cc(C(=O)Nc2cc(C(=O)NCCCN3CCCC3=O)ccc2N2CCN(c3ccccc3C)CC2)co1 [Compound 220] | 1 to 10 µM | –
COc1ccc(C(=O)Nc2cc(C(=O)NCCCN3CCCC3=O)ccc2N2CCN(c3ccccc3C)CC2)nc1 [Compound 221] | 0.1 to 1 µM | –
Cc1ccccc1N1CCN(c2ccc(C(=O)N[C@H]3O[C@@H](CO)[C@H](O)[C@@H]3O)cc2NC(=O)c2ccco2)CC1 [Compound 222] | 0.1 to 1 µM | –
C=CC(=O)NCCNC(=O)c1ccc(N2CCN(c3ccccc3C)CC2)c(NC(=O)c2ccco2)c1 [Compound 225] | 0.1 to 1 µM | –
Cc1ccccc1N1CCN(c2ccc(C(=O)NCCCN3CCCC3=O)cc2NS(=O)(=O)c2cccc3ncccc23)CC1 [Compound 229] | – | activation at 5 µM (Table 1): 41%
Cc1ccccc1N1CCN(c2ccc(C(=O)NCCC3C[C@H]4CC[C@@H]3C4)cc2NC(=O)c2coc(C3CC3)n2)CC1 (stereo partly drawn) [Compound 231] | 0.1 to 1 µM | –

SMILES | EC50 (Table 1) | other results
Cc1ccccc1N1CCN(c2ccc(C(=O)NCCCc3cn[nH]c3)cc2NC(=O)c2coc(C3CC3)n2)CC1 [Compound 232] | 0.1 to 1 µM | –
Cc1ccccc1N1CCN(c2ccc(C(=O)NCCC(=O)N3CCCC3)cc2NC(=O)c2coc(C3CC3)n2)CC1 [Compound 234] | 1 to 10 µM | –
Cc1ccccc1N1CCN(c2ccc(C(=O)NCc3ccc(Cl)cc3)cc2NC(=O)c2coc(C3CC3)n2)CC1 [Compound 235] | 1 to 10 µM | –
Cc1ccccc1N1CCN(c2ccc(C(=O)NCc3cccc(-c4c[nH]cn4)c3)cc2NC(=O)c2ccco2)CC1 [Compound 236] | 0.1 to 1 µM | –
Cc1ccccc1N1CCN(c2ccc(C(=O)NCc3cccc(-c4ccnn4C)c3)cc2NC(=O)c2ccco2)CC1 [Compound 237] | 0.1 to 1 µM | –
Cc1ccccc1N1CCN(c2ccc(C(=O)NCc3ccccc3C(N)=O)cc2NC(=O)c2ccco2)CC1 [Compound 238] | 0.1 to 1 µM | –
Cc1ccccc1N1CCN(c2ccc(C(=O)NCCCN3CCCC3=O)cc2NS(=O)(=O)Cc2cccc3cccnc23)CC1 [Compound 239] | – | activation at 5 µM (Table 1): 43%
Cc1ccccc1N1CCN(c2ccc(C(=O)NCc3cccc(-c4ccn(C)n4)c3)cc2NC(=O)c2ccco2)CC1 [Compound 240] | 0.1 to 1 µM | –
Cc1ccccc1N1CCN(c2ccc(C(=O)NCCCN3CCCC3=O)cc2Nc2ncccn2)CC1 [Compound 242, N-[3-(2-Oxo-pyrrolidin-1-yl)-propyl]-3-(pyrimidin-2-ylamino)-4-(4-o-tolyl-piperazin-1-yl)-benzamide] | 1 to 10 µM | –
Cc1cccc(N2CCN(c3ccc(C(=O)NCCCN4CCCC4=O)cc3NC(=O)c3ccc(C)o3)CC2)c1 [Compound 243] | 1 to 10 µM | –
Cc1ccc(N2CCN(c3ccc(C(=O)NCCCN4CCCC4=O)cc3NC(=O)c3coc(C4CC4)n3)CC2)cc1 [Compound 245] | – | activation at 5 µM (Table 1): 12%
Cc1ccccc1N1CCN(c2ccc(C(=O)NCc3ccc(C(N)=O)cc3)cc2NC(=O)c2ccco2)CC1 [Compound 247] | < 0.1 µM | –
Cc1ccccc1N1CCN(c2ccc(C(=O)NCc3cccc(-c4nnn[nH]4)c3)cc2NC(=O)c2ccco2)CC1 [Compound 248] | < 0.1 µM | –
Cc1ccc(N2CCN(c3ccc(C(=O)NCCCN4CCCC4=O)cc3NC(=O)c3coc(C4CC4)n3)CC2)cc1C [Compound 252] | – | activation at 5 µM (Table 1): 14%
Cc1ccc(C(=O)Nc2cc(C(=O)NCCCN3CCCC3=O)ccc2N2CCN(Cc3ccccc3C)[C@@H](C)C2)o1 [Compound 253] | – | activation at 5 µM (Table 1): 24%
Cc1ccc(C(=O)Nc2cc(C(=O)NCCCN3CCCC3=O)ccc2N2CCN(Cc3ccccc3C(F)(F)F)[C@@H](C)C2)o1 [Compound 254] | – | activation at 5 µM (Table 1): 20%
Cc1ccc(C(=O)Nc2cc(C(=O)NCCCN3CCCC3=O)ccc2N2CCN(Cc3ccccc3Cl)[C@@H](C)C2)o1 [Compound 255] | – | activation at 5 µM (Table 1): 22%
Cc1ccccc1CN1CCN(c2ccc(C(=O)NCCCN3CCCC3=O)cc2NC(=O)c2coc(C3CC3)n2)C[C@@H]1C [Compound 256] | – | activation at 5 µM (Table 1): 26%
C[C@H]1CN(c2ccc(C(=O)NCCCN3CCCC3=O)cc2NC(=O)c2coc(C3CC3)n2)CCN1Cc1ccccc1C(F)(F)F [Compound 257] | – | activation at 5 µM (Table 1): 21%

SMILES | EC50 (Table 1) | other results
Cc1ccc(C(=O)Nc2cc(C(=O)NCCCNC(=O)OC(C)(C)C)ccc2N2CCN(c3ccccc3C)CC2)o1 [Compound 258, {3-[3-[(5-Methyl-furan-2-carbonyl)-amino]-4-(4-o-tolyl-piperazin-1-yl)-benzoylamino]-propyl}-carbamic acid tert-butyl ester] | 1 to 10 µM | –
CC(=O)NCCCNC(=O)c1ccc(N2CCN(c3ccccc3C)CC2)c(NC(=O)c2ccc(C)o2)c1 [Compound 259, 5-Methyl-furan-2-carboxylicacid [5-(3-acetylaminopropylcarbamoyl)-2-(4-o-tolyl-piperazin-1-yl)-phenyl]-amide] | 0.1 to 1 µM | –
Cc1ccc(C(=O)Nc2cc(C(=O)NCCCN3CCCC3=O)ccc2N2CCN(c3ccccc3[N+](=O)[O-])CC2)o1 [Compound 261] | 1 to 10 µM | –
Cc1csc(-c2cccc(CNC(=O)c3ccc(N4CCN(c5ccccc5C)CC4)c(NC(=O)c4ccco4)c3)c2)n1 [Compound 262] | 0.1 to 1 µM | –
Cc1ccccc1N1CCN(c2ccc(C(=O)NCc3cccc(S(N)(=O)=O)c3)cc2NC(=O)c2ccco2)CC1 [Compound 266] | – | EC50 (Table 2): < 0.1 µM
Cc1ccccc1N1CCN(c2ccc(C(=O)NC3(c4cccc(C(=O)O)c4)CC3)cc2NC(=O)c2ccco2)CC1 [Compound 267] | – | EC50 (Table 2): 1 to 10 µM
CCNC(=O)NCCCNC(=O)c1ccc(N2CCN(c3ccccc3C)CC2)c(NC(=O)c2ccc(C)o2)c1 [Compound 270] | – | EC50 (Table 2): 0.1 to 1 µM
COC(=O)NCCCNC(=O)c1ccc(N2CCN(c3ccccc3C)CC2)c(NC(=O)c2ccc(C)o2)c1 [Compound 271] | – | EC50 (Table 2): 0.1 to 1 µM
Cc1ccc(C(=O)Nc2cc(C(=O)NCCCN3CCCC3=O)ccc2N2CCN(c3ccccc3N)CC2)o1 [Compound 272] | – | activation at 5 µM (Table 2): 30%
CC(C)(C)OC(=O)NC1CCN(c2ccc(C(=O)NCCCN3CCCC3=O)cc2NC(=O)c2coc(C3CC3)n2)CC1 [Compound 273] | – | EC50 (Table 2): 1 to 10 µM
Cc1ccccc1N1CCN(c2ccc(C(=O)NCCCc3c[nH]cn3)cc2NC(=O)c2coc(C3CC3)n2)CC1 [Compound 274] | – | EC50 (Table 2): 0.1 to 1 µM
Cc1ccccc1N1CCN(c2ccc(C(=O)NCCCn3cccn3)cc2NC(=O)c2coc(C3CC3)n2)CC1 [Compound 275] | – | EC50 (Table 2): 0.1 to 1 µM
COc1cccc(CNC(=O)c2ccc(N3CCN(c4ccccc4C)CC3)c(NC(=O)c3coc(C4CC4)n3)c2)c1 [Compound 276] | – | EC50 (Table 2): 0.1 to 1 µM
COc1ccccc1CNC(=O)c1ccc(N2CCN(c3ccccc3C)CC2)c(NC(=O)c2coc(C3CC3)n2)c1 [Compound 277] | – | EC50 (Table 2): 0.1 to 1 µM
Cc1ccccc1N1CCN(c2ccc(C(=O)NCCCc3ccccc3)cc2NC(=O)c2coc(C3CC3)n2)CC1 [Compound 278] | – | EC50 (Table 2): 1 to 10 µM
Cc1ccccc1N1CCN(c2ccc(C(=O)NCCCn3cccc3)cc2NC(=O)c2coc(C3CC3)n2)CC1 [Compound 279] | – | EC50 (Table 2): 0.1 to 1 µM
Cc1ccccc1N1CCN(c2ccc(C(=O)NCC(C)CN3CCCC3=O)cc2NC(=O)c2ccco2)CC1 (stereo not drawn) [Compound 280] | – | EC50 (Table 2): 0.1 to 1 µM
CCC(CCNC(=O)c1ccc(N2CCN(c3ccccc3C)CC2)c(NC(=O)c2ccco2)c1)N1CCCC1=O (stereo not drawn) [Compound 281] | – | EC50 (Table 2): 0.1 to 1 µM
Cc1ccccc1N1CCN(c2ccc(C(=O)NCCCC3CCOC3)cc2NC(=O)c2coc(C3CC3)n2)CC1 (stereo not drawn) [Compound 282] | – | EC50 (Table 2): 0.1 to 1 µM
